Patent publication US20070117770A1, “Human ribosomal DNA (rDNA) and ribosomal RNA (rRNA) nucleic acids and uses thereof” (Cylene Pharmaceuticals, Inc., priority 2005, published 2007)

Tests used:
Experiment in all cases: Protein kinase inhibition assay
Assay type in all cases: biochemical
EGFR(L858R)(h) = EGFR(L858R)(h) (Homo sapiens, UniProt P00533, L858R); details: read-out: percent residual activity of EGFR(L858R)(h)
Experimental: (§1) Certain compounds were tested for activity in protein kinase inhibition assays. All substrates were dissolved and diluted to working stocks in de-ionized water, apart from histone H1 (10× working stock in 20 mM MOPS pH 7.0), PDKtide (10× working stock in 50 mM Tris pH 7.0) ATF2 (which is typically stored at a 20× working stock in 50 mM Tris pH 7.5, 150 mM NaCl, 0.1 mM EGTA, 0.03% Brij-35, 50% glycerol, 1 mM benzamidine, 0.2 mM PMSF and 0.1% R-mercaptoethanol), KKLNRTLSFAEPG (SEQ ID NO:203) and RRRLSFAEPG (SEQ ID NO:204) (50 mM HEPES pH 7.4) and GGEEEEYFELVKKKK (SEQ ID NO:205) (20 mM MOPS pH 7.0). All kinases were pre-diluted to a 10× working concentration prior to addition into the assay. The composition of the dilution buffer for each kinase is detailed below.
(§2) In a final reaction volume of 25 μl, EGFR (L858R) (h) (5-10 mU) is incubated with 8 mM MOPS pH 7.0, 0.2 mM EDTA, 0.1 mg/ml poly(Glu, Tyr) 4:1, 10 mM MgAcetate and [gamma-33P-ATP] (specific activity approx. 500 cpm/pmol, concentration as required). The reaction is initiated by the addition of the MgATP mix. After incubation for 40 minutes at room temperature, the reaction is stopped by the addition of 5 μl of a 3% phosphoric acid solution. 10 μl of the reaction is then spotted onto a Filtermat A and washed three times for 5 minutes in 75 mM phosphoric acid and once in methanol prior to drying and scintillation counting.

Flt3(h) = Flt3(h) (Homo sapiens, UniProt P36888); details: read-out: percent residual activity of Flt3(h)
Experimental: as §1
as §2, with “Flt3” for “EGFR (L858R)”, “50 μM EAIYAAPFAKKK (SEQ ID NO:206),” for “0.1 mg/ml poly(Glu, Tyr) 4:1,”, “P30 filtermat” for “Filtermat A”

IRAK4(h) = IRAK4(h) (Homo sapiens, UniProt Q9NWZ3); details: read-out: percent residual activity of IRAK4(h)
Experimental: as §1
as §2, with “IRAK4” for “EGFR (L858R)”, “0.33” for “0.1”, “myelin basic protein,” for “poly(Glu, Tyr) 4:1,”, “P30 filtermat” for “Filtermat A”

MAPKAP-K2(h) = MAPKAP-K2(h) (Homo sapiens, UniProt P49137); details: read-out: percent residual activity of MAPKAP-K2(h)
Experimental: as §1
In a final reaction volume of 25 μl, MAPKAP-K2 (h) (5-10 mU) is incubated with 50 mM Na R-glycerophosphate pH 7.5, 0.1 mM EGTA, 30 μM KKLNRTLSVA (SEQ ID NO:212), 10 mM MgAcetate and [gamma-33P-ATP] (specific activity approx. 500 cpm/pmol, concentration as required). The reaction is initiated by the addition of the MgATP mix. After incubation for 40 minutes at room temperature, the reaction is stopped by the addition of 5 μl of a 3% phosphoric acid solution. […]

MuSK(h) = MuSK(h) (Homo sapiens, UniProt O15146); details: read-out: percent residual activity of MuSK(h)
Experimental: as §1
as §2, with “MuSK” for “EGFR (L858R)”, “5 mM MnCl2, 0.33” for “0.1”, “myelin basic protein,” for “poly(Glu, Tyr) 4:1,”, “P30 filtermat” for “Filtermat A”

PKCε(h) = PKCε(h) (Homo sapiens, UniProt Q02156); details: read-out: percent residual activity of PKCε(h)
Experimental: as §1
In a final reaction volume of 25 μl, PKCε (h) (5-10 mU) is incubated with 20 mM HEPES pH 7.4, 0.03% Triton X-100, 0.1 mg/ml phosphatidylserine, 10 μg/ml diacylglycerol, 50 μM ERMRPRKRQGSVRRRV (SEQ ID NO:224), 10 mM MgAcetate and [gamma-33P-ATP] (specific activity approx. 500 cpm/pmol, concentration as required). The reaction is initiated by the addition of the MgATP mix. After incubation for 40 minutes at room temperature, the reaction is stopped by the addition of 5 pi of a 3% phosphoric acid solution. […]

PKCε(h), sequence (Q02156 whole entry): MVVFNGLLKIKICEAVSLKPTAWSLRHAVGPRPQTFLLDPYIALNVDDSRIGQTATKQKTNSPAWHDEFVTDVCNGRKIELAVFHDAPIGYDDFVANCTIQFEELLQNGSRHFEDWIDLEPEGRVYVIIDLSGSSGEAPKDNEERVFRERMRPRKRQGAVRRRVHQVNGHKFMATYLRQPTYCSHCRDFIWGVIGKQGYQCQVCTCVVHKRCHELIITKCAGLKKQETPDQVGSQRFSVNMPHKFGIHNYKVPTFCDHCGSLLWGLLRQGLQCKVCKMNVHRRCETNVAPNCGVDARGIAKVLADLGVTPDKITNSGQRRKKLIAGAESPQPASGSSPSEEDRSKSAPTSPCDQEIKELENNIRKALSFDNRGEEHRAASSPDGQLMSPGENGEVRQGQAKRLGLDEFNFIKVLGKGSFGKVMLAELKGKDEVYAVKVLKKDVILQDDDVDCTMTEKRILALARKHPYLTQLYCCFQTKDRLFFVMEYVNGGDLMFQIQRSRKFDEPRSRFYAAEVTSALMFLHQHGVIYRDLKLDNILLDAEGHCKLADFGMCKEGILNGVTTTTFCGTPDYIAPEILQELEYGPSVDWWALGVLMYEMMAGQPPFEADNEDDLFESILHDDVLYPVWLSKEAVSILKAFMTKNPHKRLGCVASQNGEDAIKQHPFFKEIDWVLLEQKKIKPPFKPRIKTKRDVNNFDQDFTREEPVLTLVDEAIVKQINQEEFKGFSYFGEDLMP
MAPKAP-K2(h), sequence (P49137 whole entry): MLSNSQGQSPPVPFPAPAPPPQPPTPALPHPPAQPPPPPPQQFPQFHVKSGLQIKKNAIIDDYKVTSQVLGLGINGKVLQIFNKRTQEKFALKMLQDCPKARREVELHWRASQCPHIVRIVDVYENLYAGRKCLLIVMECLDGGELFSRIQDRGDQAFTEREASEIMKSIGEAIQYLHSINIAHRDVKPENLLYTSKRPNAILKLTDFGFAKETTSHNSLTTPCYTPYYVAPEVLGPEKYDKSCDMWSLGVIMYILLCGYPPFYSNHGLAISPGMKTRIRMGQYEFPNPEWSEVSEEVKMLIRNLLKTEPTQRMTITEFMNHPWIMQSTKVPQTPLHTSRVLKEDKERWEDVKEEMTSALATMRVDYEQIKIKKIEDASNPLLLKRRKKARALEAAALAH
MuSK(h), sequence (O15146 24-869): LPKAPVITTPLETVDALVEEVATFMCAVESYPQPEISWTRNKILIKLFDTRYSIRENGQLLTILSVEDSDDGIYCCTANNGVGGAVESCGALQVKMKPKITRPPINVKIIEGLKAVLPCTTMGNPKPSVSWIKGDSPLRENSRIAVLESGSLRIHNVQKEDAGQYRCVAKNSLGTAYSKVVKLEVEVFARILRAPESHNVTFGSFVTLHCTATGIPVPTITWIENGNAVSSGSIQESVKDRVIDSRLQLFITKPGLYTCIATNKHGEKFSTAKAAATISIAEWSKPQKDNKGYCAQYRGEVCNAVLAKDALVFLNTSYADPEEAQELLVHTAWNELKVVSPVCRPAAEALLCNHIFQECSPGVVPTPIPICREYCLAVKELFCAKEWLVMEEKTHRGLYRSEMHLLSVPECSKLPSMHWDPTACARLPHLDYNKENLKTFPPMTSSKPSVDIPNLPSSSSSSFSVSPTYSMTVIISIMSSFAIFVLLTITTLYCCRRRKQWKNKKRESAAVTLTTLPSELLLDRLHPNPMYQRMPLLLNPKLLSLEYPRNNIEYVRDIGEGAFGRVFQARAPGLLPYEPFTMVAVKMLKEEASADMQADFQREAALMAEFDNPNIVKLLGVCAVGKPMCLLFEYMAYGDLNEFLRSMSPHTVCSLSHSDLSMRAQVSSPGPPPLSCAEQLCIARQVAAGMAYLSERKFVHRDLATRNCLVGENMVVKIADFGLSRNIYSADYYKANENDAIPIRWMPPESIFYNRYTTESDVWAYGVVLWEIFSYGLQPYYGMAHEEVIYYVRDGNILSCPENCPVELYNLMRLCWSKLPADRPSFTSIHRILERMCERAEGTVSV
Flt3(h), sequence (P36888 27-993): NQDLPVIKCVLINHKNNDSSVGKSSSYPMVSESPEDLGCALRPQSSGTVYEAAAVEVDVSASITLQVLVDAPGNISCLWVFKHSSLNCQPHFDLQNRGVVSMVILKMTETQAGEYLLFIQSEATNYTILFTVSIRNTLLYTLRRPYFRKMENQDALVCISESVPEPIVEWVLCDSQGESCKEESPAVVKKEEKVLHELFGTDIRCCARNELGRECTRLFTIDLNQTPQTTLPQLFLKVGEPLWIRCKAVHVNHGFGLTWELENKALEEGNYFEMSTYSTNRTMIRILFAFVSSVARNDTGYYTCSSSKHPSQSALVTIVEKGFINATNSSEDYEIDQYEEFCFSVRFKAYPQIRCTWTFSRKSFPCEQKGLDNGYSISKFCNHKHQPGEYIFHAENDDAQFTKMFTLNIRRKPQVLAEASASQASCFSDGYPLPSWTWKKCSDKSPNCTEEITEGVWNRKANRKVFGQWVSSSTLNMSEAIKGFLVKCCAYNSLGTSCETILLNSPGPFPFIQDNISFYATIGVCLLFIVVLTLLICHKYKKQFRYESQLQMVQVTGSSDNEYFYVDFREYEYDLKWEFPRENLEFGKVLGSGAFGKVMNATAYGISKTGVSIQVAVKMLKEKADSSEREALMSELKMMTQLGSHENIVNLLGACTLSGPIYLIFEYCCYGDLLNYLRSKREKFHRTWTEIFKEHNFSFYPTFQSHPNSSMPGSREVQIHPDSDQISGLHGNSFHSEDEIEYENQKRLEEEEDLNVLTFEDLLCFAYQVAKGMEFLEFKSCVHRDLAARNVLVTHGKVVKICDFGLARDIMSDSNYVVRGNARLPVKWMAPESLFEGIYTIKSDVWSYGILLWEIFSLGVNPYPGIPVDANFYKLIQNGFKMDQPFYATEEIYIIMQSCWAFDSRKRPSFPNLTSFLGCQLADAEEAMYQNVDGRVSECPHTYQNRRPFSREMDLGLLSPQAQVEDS
IRAK4(h), sequence (Q9NWZ3 whole entry): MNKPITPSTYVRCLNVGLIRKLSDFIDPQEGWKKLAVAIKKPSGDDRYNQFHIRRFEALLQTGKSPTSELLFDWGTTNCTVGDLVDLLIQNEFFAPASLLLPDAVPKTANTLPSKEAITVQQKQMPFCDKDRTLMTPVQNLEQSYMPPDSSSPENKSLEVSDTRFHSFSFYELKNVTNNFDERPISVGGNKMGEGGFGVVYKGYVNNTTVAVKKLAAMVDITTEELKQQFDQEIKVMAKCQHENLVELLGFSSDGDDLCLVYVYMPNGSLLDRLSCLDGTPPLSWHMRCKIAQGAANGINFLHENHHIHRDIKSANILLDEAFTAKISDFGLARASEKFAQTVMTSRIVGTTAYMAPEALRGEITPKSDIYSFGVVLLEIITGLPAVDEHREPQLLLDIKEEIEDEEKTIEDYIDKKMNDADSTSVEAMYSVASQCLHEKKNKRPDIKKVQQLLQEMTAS
EGFR(L858R)(h), sequence (P00533 25-1210 L858R): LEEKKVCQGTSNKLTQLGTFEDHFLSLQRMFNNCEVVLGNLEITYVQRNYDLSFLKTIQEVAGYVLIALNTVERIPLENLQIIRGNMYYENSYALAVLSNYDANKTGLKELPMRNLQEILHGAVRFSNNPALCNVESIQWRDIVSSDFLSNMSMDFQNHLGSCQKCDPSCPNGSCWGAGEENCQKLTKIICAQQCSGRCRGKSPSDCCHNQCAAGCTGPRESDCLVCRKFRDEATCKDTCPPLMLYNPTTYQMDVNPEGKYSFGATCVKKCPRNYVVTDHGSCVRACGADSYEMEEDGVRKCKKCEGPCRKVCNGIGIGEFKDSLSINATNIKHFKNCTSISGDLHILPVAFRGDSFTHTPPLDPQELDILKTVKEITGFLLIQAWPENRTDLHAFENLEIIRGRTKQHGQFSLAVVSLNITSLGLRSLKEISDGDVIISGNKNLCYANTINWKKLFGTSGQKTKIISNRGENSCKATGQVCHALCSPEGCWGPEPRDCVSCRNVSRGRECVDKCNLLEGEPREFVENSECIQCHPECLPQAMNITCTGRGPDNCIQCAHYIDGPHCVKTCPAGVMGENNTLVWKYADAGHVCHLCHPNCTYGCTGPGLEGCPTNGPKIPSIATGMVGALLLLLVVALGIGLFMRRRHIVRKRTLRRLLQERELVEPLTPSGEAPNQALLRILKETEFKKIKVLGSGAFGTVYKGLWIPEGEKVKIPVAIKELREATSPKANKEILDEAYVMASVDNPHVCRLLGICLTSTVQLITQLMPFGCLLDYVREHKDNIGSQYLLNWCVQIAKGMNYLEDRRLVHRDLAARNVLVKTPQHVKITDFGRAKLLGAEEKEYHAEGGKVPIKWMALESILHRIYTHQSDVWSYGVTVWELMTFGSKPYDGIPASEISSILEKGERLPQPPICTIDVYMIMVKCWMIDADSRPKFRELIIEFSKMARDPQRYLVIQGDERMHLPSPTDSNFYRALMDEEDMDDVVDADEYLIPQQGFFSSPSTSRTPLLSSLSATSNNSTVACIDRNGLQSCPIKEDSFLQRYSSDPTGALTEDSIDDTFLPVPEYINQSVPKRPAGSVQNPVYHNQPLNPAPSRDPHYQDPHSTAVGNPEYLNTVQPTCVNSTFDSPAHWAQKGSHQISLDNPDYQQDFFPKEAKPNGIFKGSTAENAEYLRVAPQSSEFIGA

`CN1CCCC1CCNC(=O)c1cn2c3c(c(N4CCC(c5cnccn5)C4)c(F)cc3c1=O)Oc1cc3ccccc3cc1-2` (stereo not drawn) [Compound A-1] was tested, and the remaining activity at 2.5 µM (EGFR(L858R)(h)) was 113%, the remaining activity at 2.5 µM (Flt3(h)) was 32% and the remaining activity at 2.5 µM (IRAK4(h)) was 98%. For the same molecule, the remaining activity at 2.5 µM (MAPKAP-K2(h)) was 79%, the remaining activity at 2.5 µM (MuSK(h)) was 110% and the remaining activity at 2.5 µM (PKCε(h)) was 99%.
Molecule `CC(=O)N1CCN(c2ccc3c(=O)c(C(=O)NCCN4CCCC4)c4n(C)c5ccccc5n4c3n2)CC1` [Compound B-1] has a remaining activity at 2.5 µM (EGFR(L858R)(h)) of 109%, a remaining activity at 2.5 µM (Flt3(h)) of 100% and a remaining activity at 2.5 µM (IRAK4(h)) of 107%. The remaining activity at 2.5 µM (MAPKAP-K2(h)) was 99%, the remaining activity at 2.5 µM (MuSK(h)) was 108% and the remaining activity at 2.5 µM (PKCε(h)) was 109%.
